# Experiment: Photoacoustic characteristic evaluation (photoacoustic signal measurement)
# Details: pulse laser 790 nm, 12 mJ/cm^2; contrast agent in distilled water
# Experimental: Regarding the measurement of a photoacoustic signal, a sample was irradiated with pulse laser light, a photoacoustic signal from the sample was detected by using a piezoelectric element and was measured by a digital oscilloscope after being amplified by a high-speed preamplifier. Specific conditions were as described below. A titanium sapphire laser (produced by Lotis) was used as a light source. Regarding the conditions, the wavelength was 790 nm, the energy density was 12 mJ/cm^2, the pulse width was 20 nanoseconds, and the pulse repetition was 10 Hz. Model V303 (produced by Panametrics-NDT) was used as an ultrasonic transducer. Regarding the conditions, the center band was 1 MHz, the element size was φ0.5, the measurement distance was 25 mm (non-focus), and the amplification was +30 dB (ultrasonic preamplifier Model 5682 produced by Olympus Corporation). A measurement container was a polystyrene cuvette, the optical path length was 0.1 cm, and the sampling capacitor was about 200 μL. The measurement was performed by using DPO4104 (produced by Tektronix Corporation), where the conditions were as described below, trigger: photoacoustic light was detected by a photodiode data acquisition: average of 128 times (128 pulses)
smiles,measurement,value
"CC1(C)C(/C=C/C=C/C=C/C=C2\N(CCCCS(=O)(=O)O)c3ccc4ccccc4c3C2(C)C)=[N+](CCCCS(=O)(=O)[O-])c2ccc3ccccc3c21 [Contrast agent (C-1), Indocyanine green]",Photoacoustic signal intensity ratio,1.0

# Reference: patent US20160361445A1, “COMPOUND OR SALT THEREOF AND PHOTOACOUSTIC IMAGING CONTRAST AGENT CONTAINING COMPOUND OR SALT THEREOF” (CANON KABUSHIKI KAISHA, priority 2015, published 2016)
